How the values were obtained:
Details in all cases: 42 days
[1] = Shelf stability: appearance of the lyophilized powder; format: physicochemical
Description: (§1) Several samples in glass ampoules were kept without and over drying agents for 42 days in the dark at room temperature. The content of (5R,6R,1′R)-3-(4-amino-1,1-dimethylbutyl)-6-(1′-hydroxyethyl)-7-oxo-4-1-azabicyclo[3.2.0]hept-2-ene-2-carboxylic acid was determined by UV spectroscopy in water at λmax=262 nm (ε=5000) and by plate bioassay. The appearance of the lyophilized powder and the solubility behaviour in water were also recorded.

Escherichia coli = assay: Shelf stability: content by plate bioassay; format: cell-based; set-up: unit not given here
Description: as §1, with “Several samples in glass ampoules were kept without and over drying agents for 42 days in the dark at room temperature.” left out
The plate bioassays were carried out in sterile polystyrene dishes of 8.5 cm diameter with 10 ml of sterile Difco Nutrient Agar using Escherichia coli (inocculum ca. 10 000 cells). The inhibition diameters were compared with those obtained with 30, 25, 20, 15, 10 and 5 μg of pure title compound on a separate dish and the amount of active material calculated.

[2] = Shelf stability: content determined by UV spectroscopy in water at 262 nm; format: physicochemical; set-up: unit not given here
Description: as §1

[3] = R.T., vacuum, drying agent P2O5

appearance ([1]; R.T., drying agent SiO2): yellow
appearance ([1]; R.T., drying agent none): yellow
appearance [1, 3]: yellow
appearance ([1]; −80° C., drying agent none): white
content by bioassay (Escherichia coli; R.T., drying agent SiO2): 66
content by bioassay (Escherichia coli; R.T., drying agent none): 40
content by bioassay (Escherichia coli; [3]): 83
content by bioassay (Escherichia coli; −80° C., drying agent none): 100
content by UV method ([2]; R.T., drying agent SiO2): 82
content by UV method ([2]; R.T., drying agent none): 67
content by UV method [2, 3]: 76
content by UV method ([2]; −80° C., drying agent none): 100
Structure (SMILES): C[C@@H](O)[C@H]1C(=O)N2C(C(=O)O)=C(C(C)(C)CCCN)O[C@H]12 [neat, (5R,6R,1′R)-3-(4-amino-1,1-dimethylbutyl)-6-(1′-hydroxyethyl)-7-oxo-4-oxa-1-azabicyclo[3.2.0]hept-2-ene-2-carboxylic acid]
